{"source": "patent US20240366589A1", "about": "“NHE3-BINDING COMPOUNDS AND METHODS FOR INHIBITING PHOSPHATE TRANSPORT” (Ardelyx, Inc., priority 2013, published 2024)", "key": {"Rat NHE3": {"target": "T1, Rat NHE3 (Rattus norvegicus, UniProt P26433)", "T1 construct": "expressed in transfected cells; host or cells: Opossum kidney (OK) cells (ATCC), electroporation", "T1 sequence (P26433 29-831)": "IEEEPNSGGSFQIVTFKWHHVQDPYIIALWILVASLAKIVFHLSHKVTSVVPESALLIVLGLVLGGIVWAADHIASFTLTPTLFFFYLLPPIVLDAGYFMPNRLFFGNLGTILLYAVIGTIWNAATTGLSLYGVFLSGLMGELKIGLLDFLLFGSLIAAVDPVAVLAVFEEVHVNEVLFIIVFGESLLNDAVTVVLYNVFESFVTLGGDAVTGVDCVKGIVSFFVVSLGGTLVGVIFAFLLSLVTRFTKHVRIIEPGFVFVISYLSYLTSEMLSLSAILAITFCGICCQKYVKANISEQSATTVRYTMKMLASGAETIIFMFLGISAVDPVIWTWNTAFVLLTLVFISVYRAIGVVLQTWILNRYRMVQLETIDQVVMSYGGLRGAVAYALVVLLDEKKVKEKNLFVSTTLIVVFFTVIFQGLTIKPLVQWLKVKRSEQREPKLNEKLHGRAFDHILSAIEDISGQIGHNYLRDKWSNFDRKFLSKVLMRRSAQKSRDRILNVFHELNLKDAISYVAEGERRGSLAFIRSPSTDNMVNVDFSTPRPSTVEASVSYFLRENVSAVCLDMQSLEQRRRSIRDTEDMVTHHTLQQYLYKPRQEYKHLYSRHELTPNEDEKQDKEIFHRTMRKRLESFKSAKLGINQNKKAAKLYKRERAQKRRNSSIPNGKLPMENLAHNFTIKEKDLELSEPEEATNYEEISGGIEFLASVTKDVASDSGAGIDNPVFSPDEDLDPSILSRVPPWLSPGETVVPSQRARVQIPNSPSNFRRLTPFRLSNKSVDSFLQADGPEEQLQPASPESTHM", "experiment": "Cell-based NHE3 activity under prompt conditions (OK cells, BCECF pH recovery), rat NHE3", "conditions": "prompt conditions", "summary_of_the_method": "(§1)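 OK cells electroporated with rat or human NHE3 were loaded with 5 μM BCECF-AM in NH4Cl-HEPES (pH 7.4) for 30 min at room temperature, then acid-loaded 10 min in Na+-free choline-HEPES.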"}, "Human NHE3": {"target": "T2, Human NHE3 (Homo sapiens, UniProt P48764)", "T2 construct": "expressed in transfected cells; host or cells: Opossum kidney (OK) cells (ATCC), electroporation", "T2 sequence (P48764 26-834)": "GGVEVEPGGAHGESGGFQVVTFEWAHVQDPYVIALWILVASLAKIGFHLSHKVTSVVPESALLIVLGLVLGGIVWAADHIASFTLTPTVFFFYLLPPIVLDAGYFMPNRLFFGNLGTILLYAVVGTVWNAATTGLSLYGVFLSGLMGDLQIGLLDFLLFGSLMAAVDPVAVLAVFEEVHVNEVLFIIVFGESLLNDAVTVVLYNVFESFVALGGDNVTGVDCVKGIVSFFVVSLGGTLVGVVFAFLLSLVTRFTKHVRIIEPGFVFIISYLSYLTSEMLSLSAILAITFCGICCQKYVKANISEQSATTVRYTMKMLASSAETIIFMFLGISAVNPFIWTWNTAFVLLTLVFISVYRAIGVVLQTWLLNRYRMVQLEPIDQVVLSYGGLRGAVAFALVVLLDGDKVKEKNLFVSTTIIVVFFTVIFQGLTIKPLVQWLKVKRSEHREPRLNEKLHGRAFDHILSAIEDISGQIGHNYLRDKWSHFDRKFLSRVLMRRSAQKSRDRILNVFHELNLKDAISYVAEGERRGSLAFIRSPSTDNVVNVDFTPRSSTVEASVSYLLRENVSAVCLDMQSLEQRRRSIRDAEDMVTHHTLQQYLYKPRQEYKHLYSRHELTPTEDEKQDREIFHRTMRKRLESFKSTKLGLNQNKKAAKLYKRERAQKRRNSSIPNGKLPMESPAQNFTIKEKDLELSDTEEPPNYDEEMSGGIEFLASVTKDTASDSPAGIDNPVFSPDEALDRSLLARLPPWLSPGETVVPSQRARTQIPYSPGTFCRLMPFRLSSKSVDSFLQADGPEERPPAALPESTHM", "experiment": "Cell-based NHE3 activity under prompt conditions (OK cells, BCECF pH recovery), human NHE3", "conditions": "prompt conditions", "summary_of_the_method": "as §1"}, "[1]": {"test_system": "absorption of sodium from the intestinal lumen", "experiment": "Fecal form score (FFS) 16 h after oral dose in rats", "assay_type": "in vivo, rat", "conditions": "oral gavage, 16 h post-dose, scale 1-5", "summary_of_the_method": "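Eight-week-old Sprague-Dawley rats (n=6) dosed by oral gavage with compound or water vehicle between 4 and 5 PM, then housed in metabolic cages with food and water ad libitum. At 16 h, fecal form scored 1 (normal pellet) to 5 (liquid streams) by two observers; group mean reported.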"}, "[2]": {"test_system": "absorption of sodium from the intestinal lumen", "experiment": "Inhibition of intestinal sodium absorption: urinary sodium (uNa) 16 h after single oral dose in rats", "assay_type": "in vivo, rat", "conditions": "oral gavage, 16 h post-dose", "summary_of_the_method": "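Eight-week-old Sprague-Dawley rats (n=6) given single oral gavage of compound or water vehicle in the late afternoon, then kept in metabolic cages with chow and water ad libitum. Urine collected over 16 h; sodium quantified by ion chromatography and expressed as % of vehicle mean, compared by one-way ANOVA with Dunnett's test.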"}, "[3]": {"test_system": "phosphorus and calcium levels in the urine of rats", "experiment": "Urinary excretion of phosphate and calcium in rats (16 h overnight urine)", "assay_type": "in vivo, rat", "conditions": "rats, oral gavage, 16 h post-dose"}}, "data": [{"smiles": "N=C(N)Nc1nc(-c2ccc(OCCOCCOCCOCCNC(=O)NCCOCCOCCNC(=O)NCCCCNC(=O)NCCOCCOCCNC(=O)NCCOCCOCCOCCOc3ccc(-c4nc(NC(=N)N)nc5ccc(Cl)cc45)cc3)cc2)c2cc(Cl)ccc2n1", "note": "[compound 36]", "values": [{"measurement": "Prompt Rat NHE3 pIC50", "setting": "Rat NHE3", "result": 7.60}, {"measurement": "Prompt Human NHE3 pIC50", "setting": "Human NHE3", "result": 8.00}, {"measurement": "Fecal Form Score average", "setting": "[1]; dose 10 mg/kg", "result": 1}, {"measurement": "Urine Na % of control", "setting": "[2]; dose 10 mg/kg", "result": 85, "unit": "%"}, {"measurement": "Urine P % of control", "setting": "[3]; dose 10 mg/kg", "result": 86, "unit": "%"}]}, {"smiles": "N=C(N)Nc1nc(-c2ccc(OCCOCCOCCOCCN)cc2)c2cc(Cl)ccc2n1", "note": "[compound 37]", "values": [{"measurement": "Prompt Rat NHE3 pIC50", "setting": "Rat NHE3", "result": 7.50}, {"measurement": "Prompt Human NHE3 pIC50", "setting": "Human NHE3", "result": 7.50}, {"measurement": "Fecal Form Score average", "setting": "[1]; dose 10 mg/kg", "result": 1}, {"measurement": "Urine Na % of control", "setting": "[2]; dose 10 mg/kg", "result": 63, "unit": "%"}, {"measurement": "Urine P % of control", "setting": "[3]; dose 10 mg/kg", "result": 101, "unit": "%"}]}, {"smiles": "CN1Cc2c(Cl)cc(Cl)cc2[C@@H](c2cccc(S(=O)(=O)NCCOCCOCCNC(=O)NCCCCNC(=O)NCCOCCOCCNS(=O)(=O)c3cccc([C@H]4CN(C)Cc5c(Cl)cc(Cl)cc54)c3)c2)C1", "note": "[compound 40]", "values": [{"measurement": "Prompt Rat NHE3 pIC50", "setting": "Rat NHE3", "result": "<5.00"}, {"measurement": "Prompt Human NHE3 pIC50", "setting": "Human NHE3", "result": "<5.00"}, {"measurement": "Fecal Form Score average", "setting": "[1]; dose 1 mg/kg", "result": 1}, {"measurement": "Fecal Form Score average", "setting": "[1]; dose 10 mg/kg", "result": 1}, {"measurement": "Urine Na % of control", "setting": "[2]; dose 1 mg/kg", "result": 80, "unit": "%"}, {"measurement": "Urine Na % of control", "setting": "[2]; dose 10 mg/kg", "result": 90, "unit": "%"}, {"measurement": "Urine P % of control", "setting": "[3]; dose 1 mg/kg", "result": 149, "unit": "%"}, {"measurement": "Urine P % of control", "setting": "[3]; dose 10 mg/kg", "result": 128, "unit": "%"}]}, {"smiles": "N=C(N)Nc1nc(-c2cccc(N3CCN(CCOCCOCCOCCNC(=O)NCCOCCOCCNC(=O)CN(CCN(CC(=O)O)CC(=O)NCCOCCOCCNC(=O)NCCOCCOCCOCCN4CCN(c5cccc(-c6nc(NC(=N)N)nc7ccc(Cl)cc67)c5)CC4)CC(=O)O)CC3)c2)c2cc(Cl)ccc2n1", "note": "[compound 41]", "values": [{"measurement": "Prompt Rat NHE3 pIC50", "setting": "Rat NHE3", "result": 7.90}, {"measurement": "Prompt Human NHE3 pIC50", "setting": "Human NHE3", "result": 8.20}, {"measurement": "Fecal Form Score average", "setting": "[1]; dose 10 mg/kg", "result": 1}, {"measurement": "Urine Na % of control", "setting": "[2]; dose 10 mg/kg", "result": 104, "unit": "%"}, {"measurement": "Urine P % of control", "setting": "[3]; dose 10 mg/kg", "result": 133, "unit": "%"}]}, {"smiles": "CN(CC(=O)NCCOCCOCCNC(=O)NCCOCCOCCOCCN1CCN(c2cccc(-c3nc(NC(=N)N)nc4ccc(Cl)cc34)c2)CC1)CC(=O)NCCOCCOCCNC(=O)NCCOCCOCCOCCN1CCN(c2cccc(-c3nc(NC(=N)N)nc4ccc(Cl)cc34)c2)CC1", "note": "[compound 42]", "values": [{"measurement": "Prompt Rat NHE3 pIC50", "setting": "Rat NHE3", "result": 7.70}, {"measurement": "Prompt Human NHE3 pIC50", "setting": "Human NHE3", "result": 8.20}, {"measurement": "Fecal Form Score average", "setting": "[1]; dose 10 mg/kg", "result": 1}, {"measurement": "Urine Na % of control", "setting": "[2]; dose 10 mg/kg", "result": 94, "unit": "%"}, {"measurement": "Urine P % of control", "setting": "[3]; dose 10 mg/kg", "result": 94, "unit": "%"}]}, {"smiles": "CN(CC(=O)NCCOCCOCCNC(=O)NCCOCCOCCOCCOc1cccc(-c2nc(NC(=N)N)nc3ccc(Cl)cc23)c1)CC(=O)NCCOCCOCCNC(=O)NCCOCCOCCOCCOc1cccc(-c2nc(NC(=N)N)nc3ccc(Cl)cc23)c1", "note": "[compound 43]", "values": [{"measurement": "Prompt Rat NHE3 pIC50", "setting": "Rat NHE3", "result": 7.50}, {"measurement": "Prompt Human NHE3 pIC50", "setting": "Human NHE3", "result": 7.70}, {"measurement": "Fecal Form Score average", "setting": "[1]; dose 10 mg/kg", "result": 1}, {"measurement": "Urine Na % of control", "setting": "[2]; dose 10 mg/kg", "result": 70, "unit": "%"}, {"measurement": "Urine P % of control", "setting": "[3]; dose 10 mg/kg", "result": 101, "unit": "%"}]}, {"smiles": "N=C(N)Nc1nc(-c2cccc(OCCOCCOCCOCCNC(=O)NCCOCCOCCNC(=O)CN(CCN(CC(=O)O)CC(=O)NCCOCCOCCNC(=O)NCCOCCOCCOCCOc3cccc(-c4nc(NC(=N)N)nc5ccc(Cl)cc45)c3)CC(=O)O)c2)c2cc(Cl)ccc2n1", "note": "[compound 44]", "values": [{"measurement": "Prompt Rat NHE3 pIC50", "setting": "Rat NHE3", "result": 7.70}, {"measurement": "Prompt Human NHE3 pIC50", "setting": "Human NHE3", "result": 7.90}, {"measurement": "Fecal Form Score average", "setting": "[1]; dose 10 mg/kg", "result": 1}, {"measurement": "Urine Na % of control", "setting": "[2]; dose 10 mg/kg", "result": 88, "unit": "%"}, {"measurement": "Urine P % of control", "setting": "[3]; dose 10 mg/kg", "result": 102, "unit": "%"}]}, {"smiles": "CN(CC(=O)NCCOCCOCCNC(=O)NCCOCCOCCOCCN1CCN(c2ccc(-c3nc(N=C(N)N)nc4ccc(Cl)cc34)cc2)CC1)CC(=O)NCCOCCOCCNC(=O)NCCOCCOCCOCCN1CCN(c2ccc(-c3nc(N=C(N)N)nc4ccc(Cl)cc34)cc2)CC1", "note": "[compound 45]", "values": [{"measurement": "Prompt Rat NHE3 pIC50", "setting": "Rat NHE3", "result": 7.50}, {"measurement": "Prompt Human NHE3 pIC50", "setting": "Human NHE3", "result": 7.90}, {"measurement": "Fecal Form Score average", "setting": "[1]; dose 10 mg/kg", "result": 1}, {"measurement": "Urine Na % of control", "setting": "[2]; dose 10 mg/kg", "result": 97, "unit": "%"}, {"measurement": "Urine P % of control", "setting": "[3]; dose 10 mg/kg", "result": 109, "unit": "%"}]}, {"smiles": "NC(N)=Nc1nc(-c2ccc(N3CCN(CCOCCOCCOCCNC(=O)NCCOCCOCCNC(=O)CN(CCN(CC(=O)O)CC(=O)NCCOCCOCCNC(=O)NCCOCCOCCOCCN4CCN(c5ccc(-c6nc(N=C(N)N)nc7ccc(Cl)cc67)cc5)CC4)CC(=O)O)CC3)cc2)c2cc(Cl)ccc2n1", "note": "[compound 46]", "values": [{"measurement": "Prompt Rat NHE3 pIC50", "setting": "Rat NHE3", "result": 7.80}, {"measurement": "Prompt Human NHE3 pIC50", "setting": "Human NHE3", "result": 7.90}, {"measurement": "Fecal Form Score average", "setting": "[1]; dose 10 mg/kg", "result": 1}, {"measurement": "Urine Na % of control", "setting": "[2]; dose 10 mg/kg", "result": 58, "unit": "%"}, {"measurement": "Urine P % of control", "setting": "[3]; dose 10 mg/kg", "result": 112, "unit": "%"}]}]}
